Counter-ions that a name gives are not always drawn.
Columns and labels:
[1] = 12-lead ECG (PR, QTcF intervals) in dronedarone/verapamil interaction study, Day 14; details: baseline Day 1, -0.5 h, least square means
[2] = Dronedarone/verapamil pharmacokinetic interaction crossover study, plasma PK on Day 14
[3] = ATHENA clinical study, patients with calcium channel blockers baseline medication; type: in vivo
Text: Calcium channel blockers have been used in ATHENA clinical study and at the same rate in the dronedarone group and in the placebo group. About 13 to 20% of the patients had received one of these compounds during the study.
In the ATHENA trial, the concomitant administration of calcium antagonists and dronedarone was done according to the above mentioned instructions, i.e. start with low doses of the calcium antagonist and then increase the dose after ECG verification of good tolerability, if necessary and based on individual patient characteristics.
The relative risk (RR) was estimated using Cox's […] regression model.
The relative risk (RR) is the ratio of the rates of occurrence of a hospitalization or of a death among the patients on dronedarone, relative to the patients on placebo.
The percentage reduction x of a given event (hospitalization, death, cardiovascular death, etc.) is calculated in the following way: […]

[4] = dronedarone plus verapamil versus dronedarone alone
[5] = verapamil plus dronedarone versus verapamil alone
[6] = 331 patients with calcium channel blockers baseline medication, 122 events in placebo group (307 patients)
[7] = versus placebo, Cox model, calcium channel blockers baseline medication
[8] = versus placebo, calcium channel blockers baseline medication

CCCCc1oc2ccc(NS(C)(=O)=O)cc2c1C(=O)c1ccc(OCCCN(CCCC)CCCC)cc1 [Dronedarone, 2-n-Butyl-3-[4-(3-di-n-butylaminopropoxy)benzoyl]-5-methylsulphonamidobenzofuran]
Mean change (Eavr) in PR from baseline [1]: 9.7 ms | Mean change (Eavr) in QTcF from baseline [1]: 22.1 ms | Ratio of geometric means, AUC0-12 [2, 4]: 1.48 | Ratio of geometric means, Cmax [2, 4]: 1.42 | Risk of hypotension, bradycardia and heart failure ([3]; patients using both dronedarone and calcium antagonists): no increase of the risk of hypotension, bradycardia and heart failure

COc1ccc(CCNCCCC(C#N)(c2ccc(OC)c(OC)c2)C(C)C)cc1OC (stereo not drawn) [NVP, norverapamil]
Ratio of geometric means, AUC0-24 [2, 5]: 1.29 | Ratio of geometric means, Cmax [2, 5]: 1.31

COc1ccc(CCN(C)CCCC(C#N)(c2ccc(OC)c(OC)c2)C(C)C)cc1OC (stereo not drawn) [VP, verapamil]
Mean change (Eavr) in PR from baseline [1]: 4.2 ms | Mean change (Eavr) in QTcF from baseline [1]: 2.1 ms

CCCCc1oc2ccc(NS(C)(=O)=O)cc2c1C(=O)c1ccc(OCCCN(CCCC)CCCC)cc1 [dronedarone hydrochloride]
Number of events, hospitalization for congestive heart failure (CHF) ([3]; 331 patients with calcium channel blockers baseline medication, 23 events in placebo group (307 patients)): 14 | Number of events, cardiovascular hospitalization or death [3, 6]: 90 | Number of events, death [3, 6]: 90 | Relative risk, cardiovascular hospitalization or death [3, 7]: 0.628 | Relative risk, death [3, 7]: 0.628 | Relative risk, hospitalization for congestive heart failure (CHF) [3, 7]: 0.556 | Decrease of CHF [3, 8]: 44% | Decrease of cardiovascular hospitalization or death [3, 8]: 37% | Decrease of death [3, 8]: 37%
